Measured values: ChEMBL document CHEMBL3885881, “DrugMatrix”

Species on record: Rattus norvegicus
Assay: DrugMatrix - Regimen: Daily Repeat
Format: toxicity, organism-based, Sprague-Dawley
Parameters: regimen Daily Repeat, gender Male, age 6-8 weeks
Settings: in vivo, po, 500 mg/kg, route oral GAVAGE, dose level High, vehicle 100 % WATER; for ABSOLUTE BASOPHIL / ABSOLUTE EOSINOPHIL / ABSOLUTE LYMPHOCYTE / ABSOLUTE MONOCYTE / ABSOLUTE SEGMENTED NEUTROPHIL / BASOPHIL / EOSINOPHIL / ERYTHROCYTE COUNT / HEMATOCRIT / HEMOGLOBIN / LEUKOCYTE COUNT / LYMPHOCYTE / MEAN CORPUSCULAR HEMOGLOBIN / MEAN CORPUSCULAR HEMOGLOBIN CONCENTRATION / MEAN CORPUSCULAR VOLUME / MONOCYTE / NEUTROPHIL / NUCLEATED RED BLOOD CELLS / PLATELET COUNT: tissue Blood; for ALANINE AMINOTRANSFERASE / ALBUMIN / ALKALINE PHOSPHATASE / ASPARTATE AMINOTRANSFERASE / BLOOD UREA NITROGEN / CARBON DIOXIDE / CHLORIDE / CHOLESTEROL / CREATINE PHOSPHOKINASE / CREATININE / GLUCOSE / LACTATE DEHYDROGENASE / LIPASE / PHOSPHORUS / POTASSIUM / SODIUM / TOTAL BILIRUBIN / TOTAL PROTEIN / URIC ACID: tissue Plasma

Cc1c(O)c(=O)ccn1C [DEFERIPRONE]
ABSOLUTE BASOPHIL (72 h, time 3 day): 0 CELLS/uL
ABSOLUTE EOSINOPHIL (72 h, time 3 day): 97 CELLS/uL
ABSOLUTE LYMPHOCYTE (72 h, time 3 day): 8507 CELLS/uL
ABSOLUTE MONOCYTE (72 h, time 3 day): 223 CELLS/uL
ABSOLUTE SEGMENTED NEUTROPHIL (72 h, time 3 day): 223 CELLS/uL
BASOPHIL (72 h, time 3 day): 0%
EOSINOPHIL (72 h, time 3 day): 1%
ERYTHROCYTE COUNT (72 h, time 3 day): 4.97 x10E6/uL
HEMATOCRIT (72 h, time 3 day): 30.95%
HEMOGLOBIN (72 h, time 3 day): 11.7 G/DL
LEUKOCYTE COUNT (72 h, time 3 day): 9.05 x10E3/uL
LYMPHOCYTE (72 h, time 3 day): 94%
MEAN CORPUSCULAR HEMOGLOBIN (72 h, time 3 day): 23.55 pg
MEAN CORPUSCULAR HEMOGLOBIN CONCENTRATION (72 h, time 3 day): 37.8 G/DL
MEAN CORPUSCULAR VOLUME (72 h, time 3 day): 62.15 fL
MONOCYTE (72 h, time 3 day): 2.5%
NEUTROPHIL (72 h, time 3 day): 2.5%
NUCLEATED RED BLOOD CELLS (72 h, time 3 day): 0 /100WBC
PLATELET COUNT (72 h, time 3 day): 1456.5 x10E3/uL
ALANINE AMINOTRANSFERASE (72 h, time 3 day): 39 u/L
ALBUMIN (72 h, time 3 day): 4.4 G/DL
ALKALINE PHOSPHATASE (72 h, time 3 day): 373 u/L
ASPARTATE AMINOTRANSFERASE (72 h, time 3 day): 80 u/L
BLOOD UREA NITROGEN (72 h, time 3 day): 18.5 mg/dL
CARBON DIOXIDE (72 h, time 3 day): 22.5 mmol/L
CHLORIDE (72 h, time 3 day): 105.5 MEQ/L
CHOLESTEROL (72 h, time 3 day): 119 mg/dL
CREATINE PHOSPHOKINASE (72 h, time 3 day): 322.5 u/L
CREATININE (72 h, time 3 day): 0.18 mg/dL
GLUCOSE (72 h, time 3 day): 131 mg/dL
LACTATE DEHYDROGENASE (72 h, time 3 day): 239 u/L
LIPASE (72 h, time 3 day): 10 u/L
PHOSPHORUS (72 h, time 3 day): 11.5 mg/dL
POTASSIUM (72 h, time 3 day): 6.21 MEQ/L
SODIUM (72 h, time 3 day): 143.8 MEQ/L
TOTAL BILIRUBIN (72 h, time 3 day): 0.25 mg/dL
TOTAL PROTEIN (72 h, time 3 day): 6 G/DL
URIC ACID (72 h, time 3 day): 1.45 mg/dL
ABSOLUTE BASOPHIL (120 h, time 5 day): 0 CELLS/uL
ABSOLUTE EOSINOPHIL (120 h, time 5 day): 0 CELLS/uL
ABSOLUTE LYMPHOCYTE (120 h, time 5 day): 9110 CELLS/uL
ABSOLUTE MONOCYTE (120 h, time 5 day): 78 CELLS/uL
ABSOLUTE SEGMENTED NEUTROPHIL (120 h, time 5 day): 412 CELLS/uL
BASOPHIL (120 h, time 5 day): 0%
EOSINOPHIL (120 h, time 5 day): 0%
ERYTHROCYTE COUNT (120 h, time 5 day): 5.3 x10E6/uL
HEMATOCRIT (120 h, time 5 day): 33.8%
HEMOGLOBIN (120 h, time 5 day): 12.93 G/DL
LEUKOCYTE COUNT (120 h, time 5 day): 9.6 x10E3/uL
LYMPHOCYTE (120 h, time 5 day): 95.33%
MEAN CORPUSCULAR HEMOGLOBIN (120 h, time 5 day): 24.43 pg
MEAN CORPUSCULAR HEMOGLOBIN CONCENTRATION (120 h, time 5 day): 38.27 G/DL
MEAN CORPUSCULAR VOLUME (120 h, time 5 day): 63.8 fL
MONOCYTE (120 h, time 5 day): 0.67%
NEUTROPHIL (120 h, time 5 day): 4%
NUCLEATED RED BLOOD CELLS (120 h, time 5 day): 0 /100WBC
PLATELET COUNT (120 h, time 5 day): 1024.33 x10E3/uL
ALANINE AMINOTRANSFERASE (120 h, time 5 day): 34.33 u/L
ALBUMIN (120 h, time 5 day): 4.7 G/DL
ALKALINE PHOSPHATASE (120 h, time 5 day): 261 u/L
ASPARTATE AMINOTRANSFERASE (120 h, time 5 day): 61.33 u/L
BLOOD UREA NITROGEN (120 h, time 5 day): 17 mg/dL
CARBON DIOXIDE (120 h, time 5 day): 26.33 mmol/L
CHLORIDE (120 h, time 5 day): 109.33 MEQ/L
CHOLESTEROL (120 h, time 5 day): 127 mg/dL
CREATINE PHOSPHOKINASE (120 h, time 5 day): 232.33 u/L
CREATININE (120 h, time 5 day): 0.21 mg/dL
GLUCOSE (120 h, time 5 day): 140.33 mg/dL
LACTATE DEHYDROGENASE (120 h, time 5 day): 60.33 u/L
LIPASE (120 h, time 5 day): 9 u/L
PHOSPHORUS (120 h, time 5 day): 11.03 mg/dL
POTASSIUM (120 h, time 5 day): 6.28 MEQ/L
SODIUM (120 h, time 5 day): 148.93 MEQ/L
TOTAL BILIRUBIN (120 h, time 5 day): 0.2 mg/dL
TOTAL PROTEIN (120 h, time 5 day): 6.63 G/DL
URIC ACID (120 h, time 5 day): 1.83 mg/dL
